Measurements published in patent US20160081935A1, “DOSAGE FORMS FOR ORAL ADMINISTRATION OF ACTIVE SUBSTANCES” (GIULIANI S.P.A., priority 2013, published 2016).
Values after ≈ are worked out from the molar mass of the structure shown. Where two headings read alike, the source gives them in different places. Each block holds one compound with its values, some of them ahead of it.

Assays:
[1] = Hydrophilicity-lipophilicity index for the active ingredient in single dose (Ip.a.), calculation method; conditions: for Ip.a.: scale 0-20
Description: Where Ip.a. means the hydrophilicity-lipophilicity index for the active ingredient in single dose.
Coefficient X is equal to the solubility of the active ingredient S (mg/liter) divided by the amount of active ingredient expressed in mg per single dose (mg/dose).
A substance that is miscible in any ratio with water has an infinite water solubility, in such case considering a substance as the solute and the other as the solvent may be meaningless. Therefore, in this condition use of the above equation, which presents a horizontal asymptote, is not necessarily required. Instead, the value 20 on the scale of hydrophilicity lipophilicity is arbitrarily assigned, while the value 0, or better tending to 0, is attributed to substances considered insoluble in water.
In the case of molecules considered insoluble, the value on the solubility index scale will tend to zero, and therefore, the scale can be considered for convenience between the values 0-20.

[2] = cited from earlier work
[3] = Solubility of active ingredients in water; assay type: physicochemical; conditions: for Solubility: 20 °C
Description: The solubility (S) of a solute is the maximum amount of solute that dissolves in a fixed amount of a particular solvent at a specified temperature.

[4] = mg per 1000 ml of water at 20° C.-25° C., 0.00001 used for practically insoluble substances

Compound: CS(C)(=O)=O [Dimethyl sulfone]
- X = (mg/l)/(mg/dose) ([1]; dose 500 mg): 300 (mg/l)/(mg/dose)
- Ip.a. ([1]; dose 500 mg): 20
- Solubility ([2]; at 25° C.): 150 g/L at
- S [2, 4]: 150000 mg/L

Compound: CSCC[C@H](N)C(=O)O [L-Methionine]
- X = (mg/l)/(mg/dose) ([1]; dose 300 mg): 160 (mg/l)/(mg/dose)
- Ip.a. ([1]; dose 300 mg): 20
- Solubility ([2]; at 293 K): 48 g/l at 293 K
- S [2, 4]: 48000 mg/L

Compound: Cc1cc2nc3c(=O)[nH]c(=O)nc-3n(C[C@H](O)[C@H](O)[C@H](O)CO)c2cc1C [Riboflavin (form A), Riboflavin]
- Solubility ([2]; volume of water that dissolves 1 g, varies with crystal form): 1 g/3-15 L **

Compound: Cc1cc2nc3c(=O)[nH]c(=O)nc-3n(C[C@H](O)[C@H](O)[C@H](O)CO)c2cc1C [Riboflavin (form B), Riboflavin]
- Solubility ([3]; riboflavin form B, in water): 80 µg/mL (≈ 213 µM)
- S ([3]; riboflavin form B): 80 mg/L

Compound: Oc1ccc(C=Cc2cc(O)cc(O)c2)cc1 [resveratrol]
- Solubility ([2]; in water): 0.003 g in 100 ml

Further lines, with some results ahead:

- Solubility ([3]; deduced experimentally): ~80 µg/mL (≈ 213 µM)
Compound: Cc1cc2nc3c(=O)[nH]c(=O)nc-3n(C[C@H](O)[C@H](O)[C@H](O)CO)c2cc1C [Riboflavin]
- Solubility ([2]; 1 g in this volume, depending on the crystalline form, Merck Index): 3 to 15 L

- X = (mg/l)/(mg/dose) ([1]; dose 10 mg): 0.000001 (mg/l)/(mg/dose)
- Ip.a. ([1]; dose 10 mg): 0.00000
Compound: COC1=C(OC)C(=O)C(C/C=C(\C)CC/C=C(\C)CC/C=C(\C)CC/C=C(\C)CC/C=C(\C)CC/C=C(\C)CC/C=C(\C)CC/C=C(\C)CC/C=C(\C)CCC=C(C)C)=C(C)C1=O [Ubidecarenone]
- Solubility ([2]; in water, in words): practically insoluble in water
- S [2, 4]: 0.00001 mg/L

- X = (mg/l)/(mg/dose) ([1]; dose 45.3 mg): 10 (mg/l)/(mg/dose)
- Ip.a. ([1]; dose 45.3 mg): 20
- X = (mg/l)/(mg/dose) ([1]; dose 453.0 mg): 1 (mg/l)/(mg/dose)
- Ip.a. ([1]; dose 453.0 mg): 19.62
- X = (mg/l)/(mg/dose) ([1]; dose 498.3 mg): 0.9091 (mg/l)/(mg/dose)
- Ip.a. ([1]; dose 498.3 mg): 16.85
- X = (mg/l)/(mg/dose) ([1]; dose 543.6 mg): 0.8333 (mg/l)/(mg/dose)
- Ip.a. ([1]; dose 543.6 mg): 5.858
- X = (mg/l)/(mg/dose) ([1]; dose 588.9 mg): 0.7692 (mg/l)/(mg/dose)
- Ip.a. ([1]; dose 588.9 mg): 0.7258
- X = (mg/l)/(mg/dose) ([1]; dose 634.2 mg): 0.7143 (mg/l)/(mg/dose)
- Ip.a. ([1]; dose 634.2 mg): 0.08114
Compound: N[C@@H](Cc1ccc(O)cc1)C(=O)O [tyrosine]
- S ([2]; 25° C.): 453 mg/L

- X = (mg/l)/(mg/dose) ([1]; dose 0.1 mg): 0.0001 (mg/l)/(mg/dose)
- Ip.a. ([1]; dose 0.1 mg): 0.00000
Compound: Vitamin A
- Solubility ([2]; in water, in words): practically insoluble in water
- S [2, 4]: 0.00001 mg/L

- X = (mg/l)/(mg/dose) ([1]; dose 10 mg): 0.000001 (mg/l)/(mg/dose)
- Ip.a. ([1]; dose 10 mg): 0.00000
Compound: Vitamin E
- Solubility ([2]; in water, in words): practically insoluble in water
- S [2, 4]: 0.00001 mg/L
